Measured values: US5496843A, “Tricyclic indole-2-carboxylic acid derivatives” (Sumitomo Pharmaceuticals Company, Limited, priority 1993, dated 1996)

Legend:
[1] = test system: strychnine-insensitive glycine modulatory site of NMDA (N-methyl D-aspartate) receptors; assay: [3H] DCKA binding studies; settings: 10 ng/mL test compound; 10 nM [3H] DCKA; rat brain synaptic membrane preparation
Procedure: (§1) The activities of the compounds were measured by [^3 H] DCKA and [^3 H] glycine binding inhibition studies as illustrated below. [^3 H] glycine binding studies
[^3 H] DCKA binding studies
A crude rat brain synaptic membrane preparation was washed three times by centrifugation at 50,000×g for 30 min with 50 mM tris acetate (pH 7.4). The pellets obtained were suspended in 0.23M sucrose solution and stored at -80° C. For binding studies, the frozen suspension was thawed, treated with 0.08% triton X-100 at 2° C. for 10 min, and washed twice by the centrifugation as mentioned above. The synaptic membrane thus prepared (ca. 100 μg of protein) was incubated with 10 nM [^3 H] (DCKA) (603 GBq/mmol) and the test compound (10 ng/mL~0.1ng/mL) at 2° C. for 10 min in 50 mM tris acetate (pH 7.4). The incubation was terminated by suction filtration using Whatman GF/B glass filter. The radioactivity bound to the membrane on the filter was measured by scintillation counting. Non-specific binding was calculated by the radioactivity measured under the incubations in the presence of 0.1 mM glycine. […] DCKA binding.

[2] = test system: NMDA-induced tonic seizures; assay: NMDA-induced seizure model; format: in vivo; settings: 30 mg/kg, i.p., 30 min before NMDA (5 nmol) i.c.v.; mice
Procedure: The compounds of the present invention attenuated strongly NMDA-induced seizure under systemic administration in the following in vivo model. NMDA-induced seizure model Thirty min later following intraperitoneal administration of the test compound (0.3~30 mg/kg) into each of ten mice tested, NMDA (5 nmol) was administered intracerebroventricularly (i.c.v.).

[3] = test system: strychnine-insensitive glycine modulatory site of NMDA (N-methyl D-aspartate) receptors; assay: [3H] glycine binding studies; settings: 10 ng/mL test compound; 10 nM [3H] glycine; rat brain synaptic membrane preparation
Procedure: as §1
A crude rat brain synaptic membrane preparation was washed three times by centrifugation at 50,000×g for 30 min with 50 mM tris acetate (pH 7.4). The pellets obtained were suspended in 0.23M sucrose solution and stored at -80° C. For binding studies, the frozen suspension was thawed, treated with 0.08% triton X-100 at 2° C. for 10 min, and washed twice by the centrifugation as mentioned above. The synaptic membrane thus prepared (ca. 150~200 μg of protein) was incubated with 10 nM [^3 H] glycine (1.11 TBq/mmol) and the test compound (10 ng/mL~0.1 ng/mL) at 2° C. for 10 min in 50 mM tris acetate (pH 7.4). The incubation was terminated by suction filtration using Whatman GF/B glass filter. The radioactivity bound to the membrane on the filter was measured by scintillation counting. Non-specific binding was calculated by the radioactivity measured under the incubations in the presence of 0.1 mM D-serine. The [3H] glycine binding was not inhibited by addition of 0.1 mM strychnine.

inhibition of the [3H] DCKA binding [1]: 94%
inhibition of the [3H] glycine binding [3]: 69%
SMILES: Cl.NCc1ccc(NC(=O)CC2CCc3cc(Cl)cc4[nH]c(C(=O)O)c2c34)c(CC(=O)O)c1 (stereo not drawn) [Example 5, 7-Chloro-3-[p-aminomethyl-o-(carboxymethyl)phenylcarbamoylmethyl]-1,3,4,5-tetrahydrobenz[cd]indole-2-carboxylic acid hydrochloride]
protection from tonic seizures [2]: 90%
